{"source": "patent US20250066389A1", "about": "“HETEROCYCLIC AMIDES AND METHODS OF USING THE SAME” (Rgenta Therapeutics, Inc., priority 2021, published 2025)", "note": "Structures can show the parent of a compound that is named as a salt.", "data": [{"test_system": "PMS1", "assay": "Mini-Gene Reporter Assay—PMS1 (firefly luciferase mini-gene reporter transiently transfected into HEK293 cells)", "format": "cell-based", "conditions": "Homo sapiens; at 5 uM; mini-gene firefly luciferase reporter in HEK293 cells; read-out: PMS1 % Effect at 5 uM", "outline": "(§1)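 Luminescence (RLU) read-out of exon inclusion: compound dilutions, tested in duplicate, act on transiently transfected HEK293 cells carrying a firefly luciferase reporter fused downstream of the PMS1 skipped-exon region. Potency derived by Levenberg-Marquardt curve fitting, with percent effect at 5 μM.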", "units": {"activation at 5 µM": "%"}, "values": [{"smiles": "CCOc1cc2nn(C)cc2cc1C(=O)Nc1cnc(N2CCC3CCCNC3C2)cn1", "note": "(stereo not drawn) [Compound 303]", "activation at 5 µM": "50 to 75"}, {"smiles": "CCOc1cc2nn(C)cc2cc1C(=O)Nc1cnc(NCC2CC3CCC2N3)cn1", "note": "(stereo not drawn) [Compound 304]", "activation at 5 µM": "> 75"}, {"smiles": "CCOc1cc2nn(C)cc2cc1C(=O)Nc1cnc(N2CCNCC3(CC3)C2)cn1", "note": "[Compound 305]", "activation at 5 µM": "> 75"}, {"smiles": "CCOc1cc2nn(C)cc2cc1C(=O)Nc1cnc(N[C@@H]2CNC[C@@H](OC)C2)cn1", "note": "[Compound 306]", "activation at 5 µM": "< 50"}, {"smiles": "CCOc1cc2nn(C)cc2cc1C(=O)Nc1cnc(N[C@@H]2CNC[C@@H](F)C2)cn1", "note": "[Compound 307]", "activation at 5 µM": "50 to 75"}, {"smiles": "CCOc1cc2nn(C)cc2cc1C(=O)Nc1cnc(NC[C@H]2C[C@@](F)(CN)C2)cn1", "note": "[Compound 308]", "activation at 5 µM": "< 50"}, {"smiles": "CCOc1cc2nn(C)cc2cc1C(=O)Nc1cnc(N2CC(O)(C3CCCN3)C2)cn1", "note": "(stereo not drawn) [Compound 309]", "activation at 5 µM": "> 75"}]}, {"test_system": "PMS1", "assay": "Mini-Gene Reporter Assay—PMS1 (firefly luciferase mini-gene reporter transiently transfected into HEK293 cells)", "format": "cell-based", "conditions": "Homo sapiens; mini-gene firefly luciferase reporter in HEK293 cells", "outline": "as §1", "units": {"IC50": "µM"}, "values": [{"smiles": "CCOc1cc2nc(C)cn2cc1C(=O)Nc1ccc(N2CC3CCCC(C2)N3)nn1", "note": "[Compound 255]", "IC50": "< 1"}, {"smiles": "CCOc1cc2nc(C)cn2cc1C(=O)Nc1ccc(N(C)[C@@H]2C[C@H]3CC[C@@H](C2)N3)nn1", "note": "[Compound 256]", "IC50": "1 to 10"}, {"smiles": "CCOc1cc2nc(C)cn2cc1C(=O)Nc1ccc(N2CCNC(C)CC2)nn1", "note": "(stereo not drawn) [Compound 257]", "IC50": "1 to 10"}, {"smiles": "CCOc1cc2nc(C)cn2cc1C(=O)Nc1ccc(N2CCNC3CC32)nn1", "note": "(stereo not drawn) [Compound 258]", "IC50": "1 to 10"}, {"smiles": "CCOc1cc2nc(C)cn2cc1C(=O)Nc1ccc(N2CCN(CC3CCNCC3)CC2)nn1", "note": "[Compound 259]", "IC50": "1 to 10"}, {"smiles": "CCOc1cc2nc(C)cn2cc1C(=O)Nc1ccc(N2C[C@@H]3CCCN[C@@H]3C2)nn1", "note": "[Compound 260]", "IC50": "1 to 10"}, {"smiles": "CCNC1CN(c2ccc(NC(=O)c3cn4cc(C)nc4cc3OCC)nn2)C1", "note": "[Compound 262]", "IC50": "1 to 10"}, {"smiles": "CCOc1cc2nc(C)cn2cc1C(=O)Nc1ccc(N2CCC(C3CCCN3)CC2)nn1", "note": "(stereo not drawn) [Compound 263]", "IC50": "1 to 10"}, {"smiles": "CCOc1cc2nc(C)cn2cc1C(=O)Nc1ccc(N2CCNCCC2C)nn1", "note": "(stereo not drawn) [Compound 264]", "IC50": "1 to 10"}, {"smiles": "CCOc1cc2nc(C)cn2cc1C(=O)Nc1ccc(N2CCC3(CCCNC3)C2)nn1", "note": "(stereo not drawn) [Compound 265]", "IC50": "1 to 10"}, {"smiles": "CCOc1cc2nc(C)cn2cc1C(=O)Nc1ccc(N2CCC(CNC)C2)nn1", "note": "(stereo not drawn) [Compound 266]", "IC50": "< 1"}, {"smiles": "CCOc1cc2nc(C)cn2cc1C(=O)Nc1ccc(N2CC3(CCNC3)C2)nn1", "note": "[Compound 267]", "IC50": "1 to 10"}, {"smiles": "CCOc1cc2nc(C)cn2cc1C(=O)Nc1ccc(N2CCNC(C)C2C)nn1", "note": "(stereo not drawn) [Compound 268]", "IC50": "1 to 10"}, {"smiles": "CCNC1CCN(c2ccc(NC(=O)c3cn4cc(C)nc4cc3OCC)nn2)CC1", "note": "[Compound 269]", "IC50": "1 to 10"}, {"smiles": "CCOc1cc2nc(C)cn2cc1C(=O)Nc1ccc(N2CCC(CNC)CC2)nn1", "note": "[Compound 270]", "IC50": "1 to 10"}, {"smiles": "CCOc1cc2nc(C)cn2cc1C(=O)Nc1ccc(N2CCC3(CNC3)C2)nn1", "note": "[Compound 271]", "IC50": "1 to 10"}, {"smiles": "CCOc1cc2nc(C)cn2cc1C(=O)Nc1ccc(N2CCN(C3CNC3)CC2)nn1", "note": "[Compound 272]", "IC50": "1 to 10"}, {"smiles": "CCOc1cc2nc(C)cn2cc1C(=O)Nc1ccc(N2CCC3(CCNCC3)C2)nn1", "note": "[Compound 273]", "IC50": "1 to 10"}, {"smiles": "CCOc1cc2nc(C)cn2cc1C(=O)Nc1ccc(N2CCN(C3CCNC3)CC2)nn1", "note": "(stereo not drawn) [Compound 274]", "IC50": "1 to 10"}, {"smiles": "CCOc1cc2nc(C)cn2cc1C(=O)Nc1ccc(N2CCC3(CCNC3)CC2)nn1", "note": "[Compound 275]", "IC50": "1 to 10"}, {"smiles": "CCOc1cc2nc(C)cn2cc1C(=O)Nc1ccc(N2CCN[C@@H](C(C)C)C2)nn1", "note": "[Compound 276]", "IC50": "< 1"}, {"smiles": "CCOc1cc2nc(C)cn2cc1C(=O)Nc1ccc(N2CC3(CNC3)C2)nn1", "note": "[Compound 277]", "IC50": "1 to 10"}, {"smiles": "CCOc1cc2nc(C)cn2cc1C(=O)Nc1ccc(N2CCCC(CNC)C2)nn1", "note": "(stereo not drawn) [Compound 278]", "IC50": "1 to 10"}, {"smiles": "CCOc1cc2nc(C)cn2cc1C(=O)Nc1ccc(N2CCNC(CC)C2)nn1", "note": "(stereo not drawn) [Compound 279]", "IC50": "< 1"}, {"smiles": "CCOc1cc2nc(C)cn2cc1C(=O)Nc1ccc(N2CCC(NC)C2)nn1", "note": "(stereo not drawn) [Compound 280]", "IC50": "< 1"}, {"smiles": "CCOc1cc2nc(C)cn2cc1C(=O)Nc1ccc(N2CC(C)NCC2C)nn1", "note": "(stereo not drawn) [Compound 281]", "IC50": "1 to 10"}, {"smiles": "CCOc1cc2nc(C)cn2cc1C(=O)Nc1ccc(N2C[C@@H](C)N[C@@H](C)C2)nn1", "note": "[Compound 282]", "IC50": "< 1"}, {"smiles": "CCOc1cc2nc(C)cn2cc1C(=O)Nc1ccc(N2CCCC(NC)C2)nn1", "note": "(stereo not drawn) [Compound 283]", "IC50": "1 to 10"}, {"smiles": "CCOc1cc2nc(C)cn2cc1C(=O)Nc1ccc(N2CCC3(CCNCC3)CC2)nn1", "note": "[Compound 284]", "IC50": "1 to 10"}, {"smiles": "CCOc1cc2nc(C)cn2cc1C(=O)Nc1ccc(N2C[C@@H]3C[C@H]2CN3)nn1", "note": "[Compound 285]", "IC50": "1 to 10"}, {"smiles": "CCOc1cc2nc(C)cn2cc1C(=O)Nc1ccc(N2CCC3(CCNC3)C2)nn1", "note": "(stereo not drawn) [Compound 286]", "IC50": "1 to 10"}, {"smiles": "CCOc1cc2nc(C)cn2cc1C(=O)Nc1ccc(N2CCC3(CC2)CNC3)nn1", "note": "[Compound 287]", "IC50": "1 to 10"}, {"smiles": "CCOc1cc2nc(C)cn2cc1C(=O)Nc1ccc(N(C)C2CCNC2)nn1", "note": "(stereo not drawn) [Compound 288]", "IC50": "1 to 10"}, {"smiles": "CCOc1cc2nc(C)cn2cc1C(=O)Nc1ccc(N2CC3(CCNCC3)C2)nn1", "note": "[Compound 289]", "IC50": "1 to 10"}, {"smiles": "CCOc1cc2nc(C)cn2cc1C(=O)Nc1ccc(N2CCNCC2)nn1", "note": "[Compound 290]", "IC50": "< 1"}, {"smiles": "CCOc1cc2nc(C)cn2cc1C(=O)Nc1ccc(N2CCNCC2C)nn1", "note": "(stereo not drawn) [Compound 291]", "IC50": "1 to 10"}, {"smiles": "CCOc1cc2nc(C)cn2cc1C(=O)Nc1ccc(N(C)C2CCNCC2)nn1", "note": "[Compound 292]", "IC50": "1 to 10"}, {"smiles": "CCOc1cc2nc(C)cn2cc1C(=O)Nc1ccc(N2CC(NC)C2)nn1", "note": "[Compound 293]", "IC50": "1 to 10"}, {"smiles": "CCOc1cc2nc(C)cn2cc1C(=O)Nc1ccc(N2CCCNCC2)nn1", "note": "[Compound 294]", "IC50": "< 1"}, {"smiles": "CCOc1cc2nc(C)cn2cc1C(=O)Nc1ccc(N2CCNC(C)C2)nn1", "note": "(stereo not drawn) [Compound 295]", "IC50": "< 1"}, {"smiles": "CCOc1cc2nc(C)cn2cc1C(=O)Nc1ccc(N2CC3(CC(NC)CO3)C2)nn1", "note": "(stereo not drawn) [Compound 296]", "IC50": "1 to 10"}, {"smiles": "CCNC1COC2(C1)CN(c1ccc(NC(=O)c3cn4cc(C)nc4cc3OCC)nn1)C2", "note": "(stereo not drawn) [Compound 297]", "IC50": "1 to 10"}, {"smiles": "CCOc1cc2nc(C)cn2cc1C(=O)Nc1ccc(N2CC3(CC(NC(C)C)CO3)C2)nn1", "note": "(stereo not drawn) [Compound 298]", "IC50": "1 to 10"}, {"smiles": "CCOc1cc2nn(C)cc2cc1C(=O)Nc1ccc(N2CCN(C)[C@@H](C)C2)nn1", "note": "[Compound 299, (S)—N-(6-(3,4-dimethylpiperazin-1-yl)pyridazin-3-yl)-6-ethoxy-2-methyl-2H-indazole-5-carboxamide hydrochloride]", "IC50": "1 to 10"}, {"smiles": "CCOc1cc2nn(C)cc2cc1C(=O)Nc1ccc(N2CCN(CC)[C@@H](C)C2)nn1", "note": "[Compound 300, (S)-6-ethoxy-N-(6-(4-ethyl-3-methylpiperazin-1-yl)pyridazin-3-yl)-2-methyl-2H-indazole-5-carboxamide hydrochloride]", "IC50": "1 to 10"}, {"smiles": "CCOc1cc2nn(C)cc2cc1C(=O)Nc1ccc(N2CCN(C3CCOCC3)[C@@H](C)C2)nn1", "note": "[Compound 301, 6-ethoxy-2-methyl-N-{6-[(3S)-3-methyl-4-(oxan-4-yl)piperazin-1-yl]pyridazin-3-yl}-2H-indazole-5-carboxamide]", "IC50": "1 to 10"}, {"smiles": "COc1cc2nc(C)cn2cc1C(=O)Nc1cc(C)c(N2CCN[C@@H](C)C2)nn1", "note": "[Compound 302, 7-methoxy-2-methyl-N-{5-methyl-6-[(3S)-3-methylpiperazin-1-yl]pyridazin-3-yl}imidazo[1,2-a]pyridine-6-carboxamide]", "IC50": "< 1"}]}]}
